The record followed here is ChEMBL document CHEMBL3871291, “Anthraquinones from Morinda longissima and their insulin mimetic activities via AMP-activated protein kinase (AMPK) activation” (Bioorg Med Chem Lett, 2017).

Calls of active or inactive are those of the source. The rule behind the calls is not given here.

The species named for data set [1] is Mus musculus. Nature of the data set: Activation of AMPK in mouse 3T3L1 adipocytes assessed as increase in 2-NBDG uptake at 10 uM after 90 mins by fluorescence assay. The class given is cell-based.
In data set [2] the test system is C2C12. Nature of the data set: Activation of AMPK in mouse C2C12 cells assessed as increase in ACC phosphorylation at Ser79 residues at 1 mM after 1 hr by Western blot analysis. The format is cell-based.
The species named for data set [3] is Mus musculus. In words: Activation of AMPK in mouse 3T3L1 adipocytes assessed as increase in 2-NBDG uptake at 10 uM after 90 mins by fluorescence microscopy. The class given is cell-based.
In data set [4] the test system is C2C12. In words: Induction of AMPK alpha phosphorylation at Thr172 residue in mouse C2C12 cells at 10 uM after 2 hrs by Western blot analysis. The format is cell-based. For orientation: In western blotting, separated proteins are transferred to a membrane and probed.
The nature of data set [5]: Effect on total AMPK expression in mouse C2C12 cells at 10 uM after 2 hrs by Western blot analysis. The note with it: c2c12, 2 h. The format is ADME, cell-based.
Data set [6] has as its system C2C12. Nature of the data set: Activation of AMPK in mouse C2C12 cells assessed as increase in ACC phosphorylation at Ser79 residues at 10 uM after 2 hrs by Western blot analysis. The class given is cell-based.
The species entered for data set [7] is Mus musculus. In words: Cytotoxicity against mouse C2C12 cells assessed as decrease in cell viability at 10 uM after 2 to 24 hrs by MTT assay. The class given is toxicity, cell-based. The conditions noted are these: c2c12, 10 µM. Background: Tetrazolium dyes change colour on reduction, which living cells bring about.
The species entered for data set [8] is Mus musculus. In words: Cytotoxicity against mouse 3T3L1 adipocytes assessed as decrease in cell viability at 10 uM after 2 to 24 hrs by MTT assay. The format is toxicity. The conditions noted are these: 3t3-l1, 10 µM.

`COc1c(C)c(O)cc2c1C(=O)c1ccccc1C2=O`: the outcome in data set [1] was Active.

As to `NC(=O)c1ncn([C@@H]2O[C@H](CO)[C@@H](O)[C@H]2O)c1N`, in data set [2], the outcome was Active.

On to `CCCCOCc1c(O)cc2c(c1O)C(=O)c1ccccc1C2=O`, for which, in data set [1], the result was Active.

`COc1cc2c(cc1C)C(=O)c1ccccc1C2=O`: in data set [1], the result was Active.

Regarding `COCc1c(O)cc2c(c1OC)C(=O)c1ccccc1C2=O`, in data set [1], the outcome was Active.

With `COc1c2c(cc3c1C(=O)c1ccccc1C3=O)OC(C)(C)OC2`, the result in data set [1], in data set [3], in data set [4] and in data set [6] was Active. The Activity entry in data set [5], in data set [7] and in data set [8] was “Non-Toxic” throughout.

In the case of `Cc1cc2c(cc1O)C(=O)c1ccccc1C2=O`, the outcome in data set [1] was Active.

On to `COCc1c(OC)cc2c(c1OC)C(=O)c1ccccc1C2=O`, for which, in data set [1], the outcome was Active.

For `COc1cc2c(c(O)c1COCCC(C)C)C(=O)c1ccccc1C2=O`, the outcome in data set [1], in data set [3], in data set [4] and in data set [6] was Active. Besides, the Activity entry in data set [5], in data set [7] and in data set [8] was “Non-Toxic” throughout.

As for `COc1c(O)c(O)cc2c1C(=O)c1ccccc1C2=O`, the result in data set [1] was Active.

In the case of `Cc1ccc2c(c1)C(=O)c1ccccc1C2=O` [TECTOQUINONE], the outcome in data set [1], in data set [3] and in data set [4] was Active. In addition, the Activity entry in data set [5] is on record as “Non-Toxic”.
